The values that follow come from ChEMBL document CHEMBL1124960, “Histamine H3 ligands: just pharmacological tools or potential therapeutic agents?” (J Med Chem, 1990).

Assay [1] addresses T1, Histamine H3 receptor (Rattus norvegicus, UniProt Q9QYN8). Briefly: Evaluated for antagonist activity against Histamine H3 receptor and represented as KB. It is filed as functional.
The target of assay [2] is Histamine H2 receptor (Cavia porcellus) (UniProt P47747). As to the kind of experiment: Evaluated for activity at Histamine H2 receptor in guinea pig ileum. In kind it is tissue-based.
Sequence of Histamine H2 receptor (Cavia porcellus) (P47747 whole entry): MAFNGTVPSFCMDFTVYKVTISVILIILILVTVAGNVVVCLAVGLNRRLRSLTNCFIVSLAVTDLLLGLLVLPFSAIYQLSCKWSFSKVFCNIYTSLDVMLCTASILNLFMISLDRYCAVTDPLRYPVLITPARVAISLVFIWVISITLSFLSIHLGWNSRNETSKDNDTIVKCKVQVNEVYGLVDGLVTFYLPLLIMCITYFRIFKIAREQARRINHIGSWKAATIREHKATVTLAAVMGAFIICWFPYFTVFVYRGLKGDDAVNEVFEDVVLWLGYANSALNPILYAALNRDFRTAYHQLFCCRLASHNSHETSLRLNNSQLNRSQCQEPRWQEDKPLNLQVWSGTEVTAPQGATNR
In assay [3] the target is Histamine H1 receptor (Cavia porcellus) (UniProt P31389). Briefly: Evaluated for activity at Histamine H1 receptor in guinea pig ileum. It is filed as tissue-based.
Sequence of Histamine H1 receptor (Cavia porcellus) (P31389 whole entry): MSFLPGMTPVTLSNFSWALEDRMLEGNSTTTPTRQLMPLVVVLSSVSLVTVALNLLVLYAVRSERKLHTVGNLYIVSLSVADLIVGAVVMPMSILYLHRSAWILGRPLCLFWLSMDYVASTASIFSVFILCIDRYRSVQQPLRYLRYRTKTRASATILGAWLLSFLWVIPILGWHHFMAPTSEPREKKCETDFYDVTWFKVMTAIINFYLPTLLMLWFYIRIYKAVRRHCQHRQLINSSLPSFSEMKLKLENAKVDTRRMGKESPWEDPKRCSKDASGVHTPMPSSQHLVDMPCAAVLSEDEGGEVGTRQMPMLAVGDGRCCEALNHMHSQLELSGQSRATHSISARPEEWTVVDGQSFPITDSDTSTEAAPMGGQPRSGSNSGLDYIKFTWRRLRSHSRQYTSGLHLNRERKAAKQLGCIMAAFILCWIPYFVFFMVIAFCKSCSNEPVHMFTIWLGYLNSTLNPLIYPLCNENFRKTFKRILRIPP
The species entered for assay [4] is Rattus norvegicus. As to the kind of experiment: Histamine level after treatment was determined in colon. It is filed as functional.
For assay [5], the species on record is Rattus norvegicus. As to the kind of experiment: Histamine level after treatment was determined in adbominal skin. In kind it is functional.
For assay [6], the species on record is Rattus norvegicus. Briefly: Histamine level after treatment was determined in cerebral cortex. It is filed as functional.
Assay [7] is filed under the species Rattus norvegicus. Briefly: Histamine level after treatment was determined in hypothalamus. In kind it is functional.
For assay [8], the species on record is Rattus norvegicus. As to the kind of experiment: Histamine level after treatment was determined in spleen. It is filed as functional.
For assay [9], the species on record is Rattus norvegicus. Briefly: Relative inhibition of [3H]histamine release from pre-loaded slices of rat cerebral cortex. In kind it is functional.
Assay [10] deals with Histamine H1 receptor (Cavia porcellus) (UniProt P31389). As to the kind of experiment: Evaluated for agonistic activity at histamine H1 receptor of guinea pig ileum and is represented as potency. In kind it is functional, tissue-based.
Assay [11] concerns the target Histamine H2 receptor (Cavia porcellus) (UniProt P47747). As to the kind of experiment: Evaluated for agonistic activity at histamine H2 receptor of guinea pig atrium and is represented as intrinsic activity. The conditions noted are these: Cardiac atrium. In kind it is functional, tissue-based.
The target in assay [12] is Histamine H1 receptor (Cavia porcellus) (UniProt P31389). Briefly: Evaluated for agonistic activity at histamine H1 receptor of guinea pig ileum and is represented as intrinsic activity. It is filed as functional, tissue-based.
In assay [13] the target is Histamine H2 receptor (Cavia porcellus) (UniProt P47747). Briefly: Evaluated for agonistic activity at histamine H2 receptor of guinea pig atrium and is represented as potency. In kind it is functional, tissue-based. The conditions noted are these: Cardiac atrium.
Assay [14] addresses T1, Histamine H3 receptor. As to the kind of experiment: Evaluated for antagonistic activity at histamine H3 receptor in rat cerebral cortex and is represented as Ki. In kind it is functional, tissue-based.
Assay [15] is filed under the species Rattus norvegicus. As to the kind of experiment: Evaluated for inhibition of [3H]histamine release from preloaded slices and is represented as pD2. In kind it is functional.
In assay [16] the target is Histamine H1 receptor (Cavia porcellus) (UniProt P31389). As to the kind of experiment: Evaluated for antagonist activity against histamine H1 receptor and represented as KB. It is filed as functional.
Assay [17] addresses Histamine H3 receptor (Rattus norvegicus) (UniProt Q9QYN8). Briefly: Evaluated for antagonist activity against histamine H3 receptor and represented as KB. It is filed as functional.
Target sequence in this assay (Q9QYN8 whole entry): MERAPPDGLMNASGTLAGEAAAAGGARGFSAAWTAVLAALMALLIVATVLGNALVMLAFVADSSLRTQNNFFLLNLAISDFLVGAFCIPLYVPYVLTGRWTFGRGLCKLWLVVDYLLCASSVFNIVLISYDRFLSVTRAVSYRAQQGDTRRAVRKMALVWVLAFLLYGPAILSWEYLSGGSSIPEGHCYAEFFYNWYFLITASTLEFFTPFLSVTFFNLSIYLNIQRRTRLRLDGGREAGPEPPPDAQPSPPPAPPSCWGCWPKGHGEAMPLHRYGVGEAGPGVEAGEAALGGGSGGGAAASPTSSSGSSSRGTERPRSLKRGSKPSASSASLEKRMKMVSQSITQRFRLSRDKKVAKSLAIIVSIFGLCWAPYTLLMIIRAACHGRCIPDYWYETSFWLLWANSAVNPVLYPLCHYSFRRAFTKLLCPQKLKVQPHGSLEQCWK
The target in assay [18] is Histamine H2 receptor (Cavia porcellus) (UniProt P47747). As to the kind of experiment: Evaluated for activity against histamine H2 receptor in guinea pig gastric secretion and represented as alpha. It is filed as tissue-based. To be noted: Stomach.
The target is the same in assay [19]. As to the kind of experiment: Evaluated for activity against histamine H2 receptor in guinea pig gastric secretion and represented as pD2. In kind it is tissue-based. To be noted: Stomach.
Assay [20] has the same target. As to the kind of experiment: Evaluated for activity against histamine H2 receptor in guinea pig atrium and represented as alpha. In kind it is tissue-based. To be noted: Cardiac atrium.
The target is the same in assay [21]. Briefly: Evaluated for activity against histamine H2 receptor in guinea pig atrium and represented as intrinsic activity. To be noted: Cardiac atrium.
Assay [22] has as its target Histamine H3 receptor (Rattus norvegicus) (UniProt Q9QYN8). As to the kind of experiment: Evaluated for activity against H3 receptor and represented as %recovery histamine release at a concentration 5 x 10 E -6M.
Target sequence in this assay (Q9QYN8 whole entry, looked up): as the sequence (Q9QYN8 whole entry) above
Assay [23] addresses Histamine H1 receptor (Cavia porcellus) (UniProt P31389). As to the kind of experiment: Evaluated for agonistic activity at histamine H1 receptor of guinea pig ileum and is represented as potency. In kind it is functional, tissue-based.
Assay [24] deals with Histamine H2 receptor (Cavia porcellus) (UniProt P47747). Briefly: Evaluated for agonistic (intrinsic) activity at histamine H2 receptor of guinea pig atrium and is represented as intrinsic activity. To be noted: Cardiac atrium. It is filed as functional, tissue-based.
The target in assay [25] is T1, Histamine H3 receptor. Briefly: Evaluated for antagonist activity against histamine H3 receptor and is represented as -log Ki. In kind it is functional.
The target in assay [26] is Histamine H2 receptor (Cavia porcellus) (UniProt P47747). To be noted: Cardiac atrium.
Assay [27] has as its target Histamine H1 receptor (Cavia porcellus) (UniProt P31389). The conditions noted are these: Ileum.
The target of assay [28] is Histamine H2 receptor (Cavia porcellus) (UniProt P47747). Briefly: Evaluated for agonistic activity at histamine H2 receptor of guinea pig atrium and is represented as potency. In kind it is functional, tissue-based. The conditions noted are these: Cardiac atrium.
For assay [29] the target is unchanged. As to the kind of experiment: Evaluated for their activity at histamine H2 receptor in guinea pig ileum. In kind it is tissue-based.
Assay [30] has as its target Histamine H1 receptor (Cavia porcellus) (UniProt P31389). As to the kind of experiment: Evaluated for their activity at histamine H1 receptor in guinea pig ileum. In kind it is tissue-based.
The species named for assay [31] is Rattus norvegicus. As to the kind of experiment: Inhibition of [3H]histamine release from preloaded slices of rat cerebral cortex as pD2. In kind it is functional.
For assay [32], the species on record is Rattus norvegicus. As to the kind of experiment: Histamine level after treatment was determined for both agents (R-alpha-methylhistamine, thioperamide) in. It is filed as functional.
The species named for assay [33] is Rattus norvegicus. As to the kind of experiment: Histamine level after treatment was determined for both agents (R-alpha-methylhistamine, thioperamide) in adbominal skin. It is filed as functional.
The species named for assay [34] is Rattus norvegicus. Briefly: Histamine level after treatment was determined for both agents (R-alpha-methylhistamine, thioperamide) in cerebral cortex. It is filed as functional.
The species entered for assay [35] is Rattus norvegicus. Briefly: Histamine level after treatment was determined for both agents (R-alpha-methylhistamine, thioperamide) in hypothalamus. It is filed as functional.
For assay [36], the species on record is Rattus norvegicus. As to the kind of experiment: Histamine level after treatment was determined for both agents (R-alpha-methylhistamine, thioperamide) in lung. It is filed as functional.
Assay [37] is filed under the species Rattus norvegicus. Briefly: Histamine level after treatment was determined for both agents (R-alpha-methylhistamine, thioperamide) in spleen. In kind it is functional.

Molecules are shown by their SMILES.

T1 sequence (Q9QYN8 whole entry): as above

In the case of `O=C(CCCc1ccccn1)NCCc1c[nH]cn1`, on Histamine H3 receptor [1], affinity was put at a Ki of 1 µM.
On to `C[C@@H](N)Cc1c[nH]cn1`, for which the Activity was 1.02 in assay [2] and 0.49 in assay [3]. The Histamine level in the assay listed under Rattus norvegicus [4] was 81; in the assay filed under Rattus norvegicus [5], 65; in the assay listed under Rattus norvegicus [6] it was 68; in the assay filed under Rattus norvegicus [7] it was 85; in the assay filed under Rattus norvegicus [8], 69. Further, the Ratio_EC50 in the assay filed under Rattus norvegicus [9] is 1550.
With `Cc1ncc(CCN)[nH]1` [2-METHYLHISTAMINE], the Activity in assay [2] stood at 4.4; in assay [3], 16.5. In addition, the Ratio_EC50 in the assay filed under Rattus norvegicus [9] was below 0.008.
As to `Cc1nc[nH]c1CSCCNC(=N)N[C@H](C)Cc1c[nH]cn1` [SOPROMIDINE], the Potency in [10] is 1.7. Besides, the Activity in [11] came out at 1; in assay [12], 0.2. In addition, the pD2 in [13] was 6.92. At Histamine H3 receptor [14], this molecule registered a Ki of 0.06 µM.
As for `C[C@H](N)Cc1c[nH]cn1`, the Activity in assay [2] amounted to 1.74; in assay [3] it was 0.49. This molecule came in with a Ratio_EC50 in the assay listed under Rattus norvegicus [9] of 13.
`CNCCc1cnc[nH]1`: the values for the Activity in [2] and in assay [3] were 74 and 72, respectively. Besides, in the assay filed under Rattus norvegicus [15], the pD2 was 8.7. Moreover, in the assay filed under Rattus norvegicus [9], the Ratio_EC50 was found to be 270.
For `O=C(CCCCc1ccccc1)NCCc1cnc[nH]1`, on Histamine H3 receptor [1], the affinity corresponds to a Ki of 0.2 µM.
For the molecule `COc1ccc(CN(CCN(C)C)c2ccccn2)cc1`, the results for the KB in [16] and in [17] were 440 pM and above 58 nM, respectively.
As to `CC(C)Cc1ccc(CSCC/N=C(\N)NCCCc2c[nH]cn2)o1`, the pD2 in [18] stood at 8.5; in assay [19], 7.8. The same molecule returned an Activity in assay [20] of 0.9. For the same molecule, the intrinsic activity in [21] is 0.9. The same molecule registered a Release in assay [22] of 100%.
Molecule `Cc1nc[nH]c1CSCCN/C(N)=N/[C@@H](C)Cc1c[nH]cn1` came in with a Potency in [23] of 0. In addition, the Activity in assay [24] and in assay [12] was 0 throughout.
Consider `O=C(CCCC1CCCCC1)NCCc1cnc[nH]1`, for which the affinity on Histamine H3 receptor [25] corresponds to a Ki of 0.0501 µM.
`O=C(CCCc1ccccc1)NCCc1cnc[nH]1`: the Ki on Histamine H3 receptor [1] was 0.0794 µM.
For `NCCc1c[nH]cn1` [HISTAMINE], the Activity in assay [2] and in assay [3] was 100 in each case. Besides, the Ratio_EC50 in the assay filed under Rattus norvegicus [9] came to 100. In [26], the pD2 turned out to be 5.95. Also, in assay [27], the Potency came to 100.
In assay [24], `Cc1nc[nH]c1CSCCN/C(N)=N/C(C)Cc1c[nH]cn1` (stereo not given) showed an Activity of 0.8. In [28], this molecule displayed a pD2 of 6.48.
With `CN(C)CCc1cnc[nH]1`, the Activity in [29] was determined as 51; in [30] it was 44. For the same molecule, the pD2 in the assay listed under Rattus norvegicus [31] worked out at 7.3. This molecule came in with a Ratio_EC50 in the assay filed under Rattus norvegicus [9] of 170.
As for `C[C@@H](N)Cc1c[nH]cn1.S=C(NC1CCCCC1)N1CCC(c2c[nH]cn2)CC1`, the Histamine level is recorded as 75 in the assay filed under Rattus norvegicus [32]; 73 in the assay listed under Rattus norvegicus [33]; 196 in the assay filed under Rattus norvegicus [34]; 205 in the assay listed under Rattus norvegicus [35]; 143 in the assay filed under Rattus norvegicus [36]; 96 in the assay filed under Rattus norvegicus [37].
The molecule `O=C(CCCc1cnc[nH]1)NCCc1cnc[nH]1` gave a Ki at Histamine H3 receptor [25] of 1 µM.
